Assay results published in the NIST ThermoML archive (doi:10.1016/j.jct.2012.01.028).

Conditions: 101.33 kPa, Liquid; for electrical conductivity: Alternating current cell with electrodes; for speed of sound: Sing-around technique in a fixed-path interferometer; for mass density: Vibrating tube method

CCCCn1cc[n+](C)c1.F[P-](F)(F)(F)(F)F [1-butyl-3-methylimidazolium hexafluorophosphate]
Conditions | electrical conductivity [S/m] | mass density [kg/m3] | speed of sound [m/s]
293.15 K | 0.137 | 1371.61 | 1454.9
298.15 K | 0.183 | 1367.65 | 1442.6
303.15 K | 0.224 | 1363.13 | 1430.7
308.15 K | 0.267 | 1359.04 | 1419
313.15 K | 0.314 | 1354.93 | 1407.6
318.15 K | 0.384 | 1350.83 | 1396.3
323.15 K | 0.459 | 1346.72 | 1385.2
